Values of other authors, collected in patent publication US20130089611A1, “RASAGILINE CITRAMIDE” (TEVA PHARMACEUTICAL INDUSTRIES, LTD., priority 2011, published 2013).

Conditions: in vivo

absolute bioavailability: about 36%
Compound: C#CCN[C@@H]1CCc2ccccc21 [rasagiline, R(+)-N-propargyl-1-aminoindan]
